Each structure is given as a SMILES string. Active and inactive are the calls of the source. No cut-off for these calls is given here.

Data set [1] can be described thus: Inhibition of Th17 cells differentiation in C57BL/6 mouse spleen CD4+ve Th cells assessed as decrease in IL-17A production at 10 uM measured after 4 days by flow cytometry analysis. The class given is functional. The following applies: C57BL/6, CD4+ve Th, 96 h, time 4 day. For orientation: Flow cytometry measures light scatter and fluorescence of single cells or particles in a stream.

Data set [2] relates to CD4+ve Th. In words: Inhibition of Th17 cells differentiation in C57BL/6 mouse spleen CD4+ve Th cells assessed as decrease in IL-17A production at high concentrations measured after 4 days by flow cytometry analysis. The following applies: time 4.0 day. The format is functional, cell-based.
The nature of data set [3]: Inhibition of Th17 cells differentiation in C57BL/6 mouse spleen CD4+ve Th cells assessed as decrease in IL-17A production at 10 uM measured after 4 days by flow cytometry analysis (reference value: 23%). The format is functional. The following applies: C57BL/6, CD4+ve Th, 96 h, time 4 day.
Data set [4] in a line: Inhibition of Th1 cells differentiation in C57BL/6 mouse spleen CD4+ve Th cells assessed as decrease in IFNgamma production at 10 uM measured after 4 days by flow cytometry analysis (reference value: 41%). The format is functional. The following applies: C57BL/6, CD4+ve Th, 96 h, time 4 day.
A short description of data set [5]: Inhibition of Th17 cells differentiation in C57BL/6 mouse spleen CD4+ve Th cells assessed as decrease in IL-17A production at 10 uM measured after 4 days by flow cytometry analysis (reference value: 28%). The format is functional. The following applies: C57BL/6, CD4+ve Th, 96 h, time 4 day.
Data set [6] has as its system Mus musculus. In words: Immunosuppressive activity in MOG 35-55 residues/pertussis toxin-immunized autoimmune encephalomyelitis C57BL/6 mouse model assessed as suppression of disease progression by measuring clinical cumulative score at 100 mg/kg,po administered daily from day 3 measured for 21 days. The class given is functional, organism-based. The following applies: time 21.0 day.

Data set [7] can be described thus: Toxicity in MOG 35-55 residues/pertussis toxin-immunized autoimmune encephalomyelitis C57BL/6 mouse model assessed as change in body weight at 100 mg/kg,po administered daily from day 3 measured for 21 days. The class given is organism-based. The following applies: in vivo, 504 h, time 21 day.

Consider `C[C@@H]1CC[C@H]2[C@@](C)(F)[C@@H](OC(=O)Nc3ccc(OC(F)(F)F)cc3)O[C@@H]3O[C@@]4(C)CC[C@@H]1[C@]32OO4`, for which the inhibition at 10 µM in data set [1] is below 6%. Moreover, in data set [2], the inhibition result was “Active”.
On to `C[C@H]1[C@@H](S)O[C@@H]2O[C@@]3(C)CC[C@H]4[C@H](C)CC[C@@H]1[C@@]24OO3`, for which the inhibition at 10 µM in data set [3] was 12%.
As to `C[C@H]1[C@@H](SC(=O)CCCC[C@H]2CCSS2)O[C@@H]2O[C@@]3(C)CC[C@H]4[C@H](C)CC[C@@H]1[C@@]24OO3`, the inhibition at 10 µM in data set [1] was below 6%. Moreover, the inhibition entry in data set [2] was “Active”.
Regarding `C[C@H]1[C@@H](OC(=O)CCCC[C@H]2CCSS2)O[C@@H]2O[C@@]3(C)CC[C@H]4[C@H](C)CC[C@@H]1[C@@]24OO3`, the inhibition at 10 µM in data set [4] was 3%; in data set [5] it was 8%. The outcome in data set [6] was Active. Further, the Activity entry in data set [7] is given as “Toxic”.
`C[C@@H]1CC[C@H]2[C@@](C)(Cl)[C@@H](OC(=O)Nc3ccc(OC(F)(F)F)cc3)O[C@@H]3O[C@@]4(C)CC[C@@H]1[C@]32OO4`: the inhibition at 10 µM in data set [1] is below 6%. Besides, in data set [2], the inhibition entry was “Active”.
`C[C@H]1[C@@H](SC(=O)Nc2ccc(OC(F)(F)F)cc2)O[C@@H]2O[C@@]3(C)CC[C@H]4[C@H](C)CC[C@@H]1[C@@]24OO3`: the inhibition at 10 µM in data set [1] was below 6%. Further, the inhibition entry in data set [2] is “Active”.
For `C[C@@H]1CC[C@H]2C(C)(C)[C@@H](OC(=O)Nc3ccc(OC(F)(F)F)cc3)O[C@@H]3O[C@@]4(C)CC[C@@H]1[C@]32OO4`, in that order: below 6% and “Active”.

One may read the inhibition as the percentage by which the read-out fell short of the control.

Values taken from ChEMBL document CHEMBL5143635, “Synthesis and biological evaluation of artemisinin derivatives as potential MS agents” (Bioorg Med Chem Lett, 2022).
